# Legend:
# TSC1−/− MEFs = assay: ER stress parameters (western blot, XBP-1 rt-PCR) in TSC1-deficient MEFs; type: cell-based, mouse; settings: for splicing of XBP-1 mRNA (UPR activation): thapsigargin 0.05 nM, tunicamycin 0.002 ug/ml, compared with controls
# Procedure: (§1) All of the mouse embryonic fibroblast (MEF) cell lines (TSC1+/+, TSC1−/−, TSC2+/+, TSC2−/−) were cultured in medium containing DMEM-H+10% fetal bovine serum (FBS)+1% PS (penicillin-streptomycin complex) in 175 cm^2 cell culture flasks using standard methods. Upon reaching 90% confluency, cells were split into 10 cm dishes at 30-40% confluency and grown again in DMEM-H+10% FBS+1% PS to about 60% confluency for experiments.
# […] As a vehicle control, DMSO was not present at a sufficiently high concentration to act as a chemical chaperone. […] At the end of the incubation, the media was removed and dishes were immediately frozen in liquid nitrogen and stored at −80° C. untile further use.
# (§2) Protein extracts were prepared with a lysis buffer containing 25 mM Tris-HCl (pH 7.4), 2 mM Na3VO4, 10 mM NaF, 10 mM Na4P2O7, 1 mM EGTA, 1 mM EDTA, 1% NP-40, 5 ug/ml leupeptin, 5 ug/ml aprotinin, 10 nM okadaic acid, and 1 mM phenylmethylsulfonyl fluoride (PMSF). Immunoprecipitations and immunoblotting experiments were performed with 200 and 75 μg total protein, respectively without any freeze-thaw cycles from individual aliquots.
# (§3) Protein concentrations were normalized and the desired amounts were aliquotted into tubes. Laemelli buffer was added to a 1× final concentration and the samples were boiled for five minutes. After boiling, the samples were incubated at room temperature for 20 minutes. The boiled, cooled lysates were centrifuged at 14,000 rpm and subject to SDS-PAGE. Proteins were transferred to PVDF membranes for western blotting.
# (§4) Membrane blotting was performed using standard techniques and reagents. Appropriate modification depending on the antibodies used and other considerations, is within the ability of those skilled in the art. Membranes were blocked in 10% blocking reagent for 1 hour prior to exposure to primary antibody in tris-buffered saline-tween (TBST), pH 7.4, overnight at 4° C. Following overnight incubation, membranes were washed in TBST for 3×20 minutes and placed into secondary antibody for 1 hour. Subsequently the membrane was washed 3×20 minutes in TBST. After the washing period, the membranes were developed by using a chemiluminescence kit and the bands were visualized using a phospho imager system (VersaDoc Imaging System, Model 3000).
# (§5) Phosphorylation state of the ER stress markers PERK and s6K1 were analyzed in both wild type (TSC2+/+ and TSC1+/+) and TSC-deficient (TSC2−/− and TSC1−/−) MEFs. Cells were cultured and treated with DMSO (vehicle control) or rapamycin as discussed above. Rapamycin inhibits signaling through the mTOR pathway which is required for ER stress response. The DMSO was present at too low of a concentration to act as a chemical chaperone. Cells were harvested and protein and RNA were isolated. Protein samples were resolved by SDS-PAGE and proteins were transferred to PVDF membrane for western blotting as described above. RNA was subjected to rt-PCR using probes designed to mouse XBP-1 to detect splicing.
# (§6) Phosphorylation state of the ER stress markers PERK, eIF2α cJun, JNK and s6K1, and the level of spliced XBP-1 were analyzed in both wild type and TSC-deficient MEFs. Cells were treated with PBS (vehicle control) or PBA (chemical chaperone) as discussed above. Cells were harvested, samples were resolved by SDS-PAGE, proteins were transferred to PVDF membrane, and western blots were performed as described above.
# TSC2−/− MEFs = assay: ER stress parameters (western blot, XBP-1 rt-PCR) in TSC2-deficient MEFs; type: cell-based, mouse; settings: for splicing of XBP-1 mRNA (UPR activation): thapsigargin 0.05 nM, tunicamycin 0.002 ug/ml, compared with controls
# Procedure: as §1
# At the start of the experiment, cells were placed in fresh media and treated with 200 nM Rapamycin or 10 mM […], and DMSO or PBS as respective vehicle controls (PBA was dissolved in PBS, and rapamycin was dissolved in DMSO), for 19 hours. As a vehicle control, DMSO was not present at a sufficiently high concentration to act as a chemical chaperone. Cells were then washed 3 times with serum-free DMEM-H+1% PS and incubated for 5 hours in serum free DMEM-H+1% PS in the presence of rapamycin or PBA and their appropriate vehicle controls. At the end of the incubation, the media was removed and dishes were immediately frozen in liquid nitrogen and stored at −80° C. untile further use.
# as §2, §3, §4, §5, §6
# [1] = system: c-Jun Amino Terminal Kinase-1 (JNK-1); assay: c-Jun Amino Terminal Kinase (JNK) kinase assay on immunoprecipitates from TSC2-deficient cells; type: cell-based, mouse; settings: PBA 10 mM
# Procedure: Cell lysates were prepared as above, and subsequently incubated with primary antibody and Sepharose beads, either Protein A Sepharose or Protein G Sepharose depending on the antibody. The samples were incubated on a rotating apparatus overnight at 4° C. Subsequently, beads were centrifuged at 14,000 rpm and washed 3 times with cold lysis buffer. If immunoprecipitates were to be subjected to SDS-PAGE, they were boiled in 2× Laemmli buffer for 5 minutes prior to loading.
# Following immunoprecipitation the beads were washed 3 times with lysis buffer as described above, and two times with JNK kinase assay buffer (25 mM HEPES (pH: 7.4), 20 mM MgCl2, 20 mM β-glycerophosphate, 0.5 mM EGTA, 0.5 mM NaF, 0.5 mM NaOrthoVanadate, 1 mM PMSF) for equilibration. After washing with kinase buffer, the beads were incubated in 17 μl kinase buffer, 1 μl [^32P]γ-ATP and 4 μg of c-Jun fusion protein at 30° C. for 20 minutes. The reaction was terminated by the addition of Laemmli buffer. The samples were resolved by SDS-page and transferred to a PVDF membrane as described above. Phosphorylated c-Jun bands were visualized prior to western blotting.
# Phosphorylation state of the ER stress markers PERK, eIF2α cJun, JNK and s6K1, and the level of spliced XBP-1 were analyzed in both wild type and TSC-deficient MEFs. Cells were treated with PBS (vehicle control) or PBA (chemical chaperone) as discussed above. […]
# TSC-1−/− cells = assay: Insulin signaling (IRS-1, IRS-2, Akt western blot) in TSC-1−/− cells; type: cell-based, mouse; settings: PBA treatment
# Procedure: (§7) For insulin signaling experiments, cells were treated exactly the same way as for analysis of ER stress parameters. At the end of a 5-hour starvation period, cells were either stimulated with PBS or with 100 nM insulin for 5 minutes for analysis of ISR phosphorylation analysis, or 15 minutes for Akt phosphorylation analysis. Samples were harvested and subjected to western blotting as described above. Blots were probed with primary antibodies targeted to total and phosphorylated insulin receptor substrate (IRS)-1, and -2, and Akt, a downstream target in the insulin signaling pathway.
# TSC-2−/− cells = assay: Insulin signaling (IRS-1, IRS-2, Akt western blot) in TSC-2−/− cells; type: cell-based, mouse; settings: PBA treatment
# Procedure: as §7
# IRS-1 [2] = assay: Degradation pattern of IRS-1 after cycloheximide addition in TSC-1 deficient cells; type: cell-based, mouse; settings: pretreatment with PBA (an hour without PBA)
# Description: (§8) It has been previously shown that when ER stress is induced acutely, IRS-1 is highly phosphorylated at serine 307 residue, and insulin induced tyrosine phosphorylation is blocked. […] Eight hour stimulation with thapsigargin in the presence of MG132 leads to ubiquitination of IRS-1. […] As mentioned above, IRS-1 degradation was increased in both TSC1- and TSC2-deficient cells. […] IRS-1 protein levels became totally undetectable in an hour after cycloheximide addition, whereas pretreatment with PBA extends this period up to 4 hours.
# TSC1−/− cells = assay: Apoptosis (Cell Death Elisa, caspase 3 or PARP cleavage) in TSC1−/− cells; type: cell-based, mouse
# Procedure: (§9) ER stress can cause apoptosis. […] Wild-type and TSC1−/− cells were plated in 96 well plates in DMEM-H+10% FBS+1% PS at 40-50% confluence. Upon reaching about 80% confluence, the cells were washed with DMEM-H without FBS and treated with the ER stress inducer thapsigargin (10 nM) or DMSO (vehicle control) for 6 hours in serum-free DMEM-H+1% PS. Apoptosis was analyzed by using Cell Death Elisa Kit using the manufacturer's instructions, or by detection of caspase 3 or PARP cleavage.
# TSC2−/− cells = assay: Apoptosis (Cell Death Elisa, caspase 3 or PARP cleavage) in TSC2−/− cells; type: cell-based, mouse
# ER stress = settings: western blot after treatment of the animal with the compound; cited from earlier work
# IRS-1 [3] = assay: IRS-1 degradation and ubiquitination during ER stress induced by thapsigargin or tunicamycin; type: cell-based; settings: for degradation of IRS-1: prolonged exposure to ER stress
# Description: as §8
# wild type control cells = assay: UPR activation by low doses of ER stress inducers in wild type control cells; type: cell-based, mouse; settings: thapsigargin 0.05 nM, tunicamycin 0.002 ug/ml
# Procedure: as §1
# TSC-deficient cells and their corresponding control cells were exposed to extremely low doses of thapsigargin (0.05 nM) and tunicamycin (0.002 ug/ml) at which the UPR is not activated in wild type control cells. TSC1- and TSC2-deficient cells responded to the ER stress inducers by activating the UPR as determined by increased splicing of XBP-1 mRNA when compared with their controls.
# Wild-type control cells = assay: Apoptosis in wild-type control cells; type: cell-based, mouse; settings: thapsigargin, same time period (6 hours)
# Procedure: as §9
# [4] = system: kidney adenomas and liver hemangiomas of TSC-2+/− mice; type: in vivo; settings: thapsigargin 1 mg/kg
# Procedure: To address this, we have used around ˜1 year old TSC-2+/−mice for thapsigargin (1 mg/kg) or vehicle treatment. After 7 days of thapsigargin administration we have analyzed the apoptosis with tunnel assay in the kidney adenomas. […] Increased tunnel positivity in liver hemangiomas after thapsigargin treatment was also observed, but lack of liver hemangiomas in vehicle treated group, limits the conclusions that can be drawn from the study.
# [5] = TSC1-deficient MEFs, western blot, rapamycin 200 nM, 12 hours, PBA 10 mM
# [6] = TSC2-deficient MEFs, western blot, rapamycin 200 nM, 12 hours, PBA 10 mM
# [7] = 8 hours in the presence of 26S proteosome inhibitor epoxomicin
molecule,measurement,setting,value
C[C@@H]1C[C@@H]([C@H](O)CC2CC(=O)NC(=O)C2)C(=O)[C@@H](C)C1 [Cyclohexamide],PERK phosphorylation,TSC1−/− MEFs; [5],decrease
same,PERK phosphorylation,TSC2−/− MEFs; [6],decrease
"O=C(O)CCCc1ccccc1 [PBA, 4-phenyl butyric acid]",PERK phosphorylation,TSC1−/− MEFs; [5],block
same,S6 phosphorylation,TSC1−/− MEFs; [5],significant decrease
same,s6K1 phosphorylation,TSC1−/− MEFs; [5],significant decrease
same,eIF2α phosphorylation,"TSC1−/− MEFs; TSC1-deficient cells, PBA 10 mM",substantial decrease
same,XBP-1 mRNA splicing after glucose starvation,TSC1−/− MEFs; TSC-1 deficient cells glucose starved in the presence of 4-PBA,significantly reduced
same,glucose starvation induced CHOP transcription,"TSC1−/− MEFs; TSC-1 deficient cells, 4-PBA treatment",significantly reduced
same,PERK phosphorylation,TSC2−/− MEFs; [6],blocked
same,S6 phosphorylation,TSC2−/− MEFs; [6],significant decrease
same,eIF2α phosphorylation,"TSC2−/− MEFs; TSC2-deficient cells, PBA 10 mM",blocked
same,XBP-1 mRNA splicing after glucose starvation,TSC2−/− MEFs; TSC-2 deficient cells glucose starved in the presence of 4-PBA,significantly reduced
same,c-Jun Amino Terminal Kinase-1 (JNK-1) activity,[1],suppressed
same,insulin induced IRS-1 tyrosine phosphorylation,TSC-1−/− cells; 100 nM insulin 5 minutes,improved
same,insulin induced IRS-2 tyrosine phosphorylation,TSC-1−/− cells; 100 nM insulin 5 minutes,improved
same,insulin induced Akt phosphorylation,TSC-1−/− cells; 100 nM insulin 15 minutes,improved
same,protein levels of IRS-1,TSC-1−/− cells,increase
same,insulin induced IRS-1 tyrosine phosphorylation,TSC-2−/− cells; 100 nM insulin 5 minutes,improved
same,insulin induced IRS-2 tyrosine phosphorylation,TSC-2−/− cells; 100 nM insulin 5 minutes,improved
same,insulin induced Akt phosphorylation,TSC-2−/− cells; 100 nM insulin 15 minutes,improved
same,protein levels of IRS-1,TSC-2−/− cells,increase
same,period until IRS-1 protein levels become undetectable after cycloheximide addition,IRS-1 [2],up to 4 hours
same,Glucose starvation induced PARP and caspase-3 cleavage,"TSC1−/− cells; TSC-1−/− cells, 4-PBA treatment",blocked
same,rescue from ER stress inducer sensitivity,"TSC2−/− cells; TSC2-deficient cells, treatment with chemical chaperone",at least partially rescued
same,Glucose starvation induced PARP and caspase-3 cleavage,"TSC2−/− cells; TSC-2−/− cells, 4-PBA treatment",blocked
same,"ER stress in animals (phosphorylation of PERK, activation of JNK, phosphorylation of IRE-1α)",ER stress,regulate ER stress
"C[C@H](CCC(=O)NCCS(=O)(=O)O)[C@H]1CC[C@H]2[C@@H]3[C@@H](O)C[C@@H]4C[C@H](O)CC[C@]4(C)[C@H]3CC[C@]12C [TUDCA, tauroursodeoxycholic acid]","ER stress in animals (phosphorylation of PERK, activation of JNK, phosphorylation of IRE-1α)",ER stress,regulate ER stress
C/C=C(/C)C(=O)O[C@H]1C(C)=C2[C@H]([C@@H]1OC(=O)CCCCCCC)[C@@](C)(OC(C)=O)C[C@H](OC(=O)CCC)[C@@]1(O)[C@H]2OC(=O)[C@@]1(C)O [thapsigargin],splicing of XBP-1 mRNA (UPR activation),TSC1−/− MEFs; TSC1-deficient cells,increased
same,splicing of XBP-1 mRNA (UPR activation),TSC2−/− MEFs; TSC2-deficient cells,increased
same,ubiquitination of IRS-1,IRS-1 [3]; [7],severe ubiquitination
same,ubiquitination of IRS-1,IRS-1 [3]; eight hour stimulation in the presence of MG132,ubiquitination
same,degradation of IRS-1,IRS-1 [3],degradation of IRS-1
same,UPR activation,wild type control cells,not activated
same,cleaved caspase-3 or PARP cleavage,"TSC1−/− cells; TSC1−/− cells after thapsigargin treatment, compared with controls",significantly induced
same,apoptosis,"TSC1−/− cells; TSC1−/− cells, thapsigargin 10 nM, after 6 hours",massive apoptosis
same,apoptosis,"TSC2−/− cells; TSC2−/− cells, thapsigargin, after 6 hours",massive apoptosis
same,PARP and caspase-3 cleavage,"TSC2−/− cells; TSC-2−/− cells, induction of ER stress",increased
same,apoptosis,Wild-type control cells,no apoptosis
same,tunnel positivity in liver hemangiomas,[4]; no liver hemangiomas in vehicle treated group,Increased
same,tunnel assay positive cells in kidney adenomas,"[4]; ~1 year old TSC-2+/− mice, after 7 days",clear up-regulation
tunicamycin,splicing of XBP-1 mRNA (UPR activation),TSC1−/− MEFs; TSC1-deficient cells,increased
same,splicing of XBP-1 mRNA (UPR activation),TSC2−/− MEFs; TSC2-deficient cells,increased
same,ubiquitination of IRS-1,IRS-1 [3]; [7],severe ubiquitination
same,degradation of IRS-1,IRS-1 [3],degradation of IRS-1
same,UPR activation,wild type control cells,not activated
